Values joined by “and” are separate entries in the source; they are usually repeats but may differ in a detail not shown here. Equal entries are not always repeated. Records with an inconclusive call do not appear.
System: MX-1 breast xenograft, nude mice, tumor weight T/C
Assay: NCI In Vivo Anticancer Drug Screen. Data for tumor model Human Mammary Carcinoma MX-1 Xenograft (intrarenal inoculation) in NU/NU Swiss (nude) mice
Conditions: endpoint: mean tumor weight change, higher = larger tumour
Procedure: The antitumor activity of compounds was measured in mice bearing transplantable tumors. Survival or tumor size were measured and the results are expressed as the measurement made in the treated group (T) divided by the measurement made in the vehicle treated control group (C). The tumor model used in this assay is Human Mammary Carcinoma MX-1 Xenograft (intrarenal inoculation) in NU/NU Swiss (nude) mice

CC(=O)OCC1OC(OC(C)=O)C(NC(=O)N(CCCl)N=O)C(OC(C)=O)C1OC(C)=O (centres undefined)
T/C (dose: 6.0 mg/kg/injection, schedule: Q04DX003 (sc), vehicle: Klucel (hydroxypropylcellulose) (HPC)): 95 % of control
T/C (dose: 24.0 mg/kg/injection, schedule: Q04DX003 (sc), vehicle: Klucel (hydroxypropylcellulose) (HPC)): 77 % of control

NC(=O)NO
T/C (dose: 200.0 mg/kg/injection, schedule: Q01DX010 (sc), vehicle: saline): 44 % of control
T/C (dose: 400.0 mg/kg/injection, schedule: Q01DX010 (sc), vehicle: saline): 49 % of control

CCCCNC(C)[C@]1(O)Cc2c(O)c3c(c(O)c2[C@@H](OC2CC(N)C(O)C(C)O2)C1)C(=O)c1c(OC)cccc1C3=O (some centres undefined)
T/C (dose: 6.25 mg/kg/injection, schedule: Q01DX010 (sc), vehicle: saline): 59 % of control and 61 % of control
T/C (dose: 18.0 mg/kg/injection, schedule: Q01DX010 (sc), vehicle: saline): 12 % of control

O=[N+]([O-])O.O=[N+]([O-])O.[NH-]C1CCCCC1[NH-].[Pt+2] (centres undefined)
T/C (dose: 1.0 mg/kg/injection, schedule: Q01DX010 (sc), vehicle: dextrose): 62 % of control
T/C (dose: 2.0 mg/kg/injection, schedule: Q01DX010 (sc), vehicle: dextrose): 27 % of control

Cc1cc(NCCN(C(C)C)C(C)C)nc(/N=C(\N)Nc2ccc(Cl)c(C(F)(F)F)c2)n1
T/C (dose: 80.0 mg/kg/injection, schedule: Q04DX003 (sc), vehicle: Klucel (hydroxypropylcellulose) (HPC)): 64 % of control
T/C (dose: 160.0 mg/kg/injection, schedule: Q04DX003 (sc), vehicle: Klucel (hydroxypropylcellulose) (HPC)): 62 % of control
T/C (dose: 320.0 mg/kg/injection, schedule: Q04DX003 (sc), vehicle: Klucel (hydroxypropylcellulose) (HPC)): 81 % of control

O=C1c2ccccc2C(=O)c2c3c(cc(NCCNCCO)c21)N(CCO)CCN3
T/C (dose: 12.5 mg/kg/injection, schedule: Q04DX003 (sc), vehicle: DMSO): 95 % of control
T/C (dose: 25.0 mg/kg/injection, schedule: Q04DX003 (sc), vehicle: DMSO): 101 % of control
T/C (dose: 50.0 mg/kg/injection, schedule: Q04DX003 (sc), vehicle: DMSO): 77 % of control
T/C (dose: 100.0 mg/kg/injection, schedule: Q04DX003 (sc), vehicle: DMSO): 111 % of control
T/C (dose: 200.0 mg/kg/injection, schedule: Q04DX003 (sc), vehicle: DMSO): 151 % of control

COC1=C(C)C(=O)C2=C(C1=O)C1C3CC4=C(C(=O)C(OC)=C(C)C4=O)C(CNC(=O)C(C)=O)N3C(C#N)C(C2)N1C (centres undefined)
T/C (dose: 1.0 mg/kg/injection, schedule: Q04DX003 (sc), vehicle: Klucel (hydroxypropylcellulose) (HPC)): 104 % of control
T/C (dose: 4.0 mg/kg/injection, schedule: Q04DX003 (sc), vehicle: Klucel (hydroxypropylcellulose) (HPC)): 69 % of control

CNC(=O)c1cccc2c(Nc3ccc(NS(C)(=O)=O)cc3OC)c3cccc(C)c3nc12
T/C (dose: 50.0 mg/kg/injection, schedule: Q04DX003 (sc), vehicle: water): 111 % of control
T/C (dose: 100.0 mg/kg/injection, schedule: Q04DX003 (sc), vehicle: water): 73 % of control
T/C (dose: 200.0 mg/kg/injection, schedule: Q04DX003 (sc), vehicle: water): 31 % of control

O=C1NC(O)CCN1C1OC(CO)C(O)C1O (centres undefined)
T/C (dose: 200.0 mg/kg/injection, schedule: Q01DX010 (sc), vehicle: water): 111 % of control
T/C (dose: 400.0 mg/kg/injection, schedule: Q01DX010 (sc), vehicle: water): 112 % of control
T/C (dose: 800.0 mg/kg/injection, schedule: Q01DX010 (sc), vehicle: water): 79 % of control
T/C (dose: 1600.0 mg/kg/injection, schedule: Q01DX010 (sc), vehicle: water): 103 % of control

CCOC(=O)C1=C(C#N)C2(CCC(OCc3ccccc3)CC2)C(=O)O1 (centres undefined)
T/C (dose: 200.0 mg/kg/injection, schedule: Q04DX003 (sc), vehicle: suspension in saline): 81 % of control
T/C (dose: 400.0 mg/kg/injection, schedule: Q04DX003 (sc), vehicle: suspension in saline): 119 % of control
T/C (dose: 800.0 mg/kg/injection, schedule: Q04DX003 (sc), vehicle: suspension in saline): 52 % of control
T/C (dose: 1600.0 mg/kg/injection, schedule: Q04DX003 (sc), vehicle: suspension in saline): 62 % of control

CCOC(=O)C(N)C[S][Sn]([CH3])([CH3])[Cl] (centres undefined)
T/C (dose: 75.0 mg/kg/injection, schedule: Q04DX003 (sc), vehicle: saline): 155 % of control

Cc1ccc(S(=O)(=O)OCOS(=O)(=O)c2ccc(C)cc2)cc1
T/C (dose: 300.0 mg/kg/injection, schedule: Q04DX003 (sc), vehicle: Klucel (hydroxypropylcellulose) (HPC)): 89 % of control
T/C (dose: 600.0 mg/kg/injection, schedule: Q04DX003 (sc), vehicle: Klucel (hydroxypropylcellulose) (HPC)): 98 % of control
T/C (dose: 1200.0 mg/kg/injection, schedule: Q04DX003 (sc), vehicle: Klucel (hydroxypropylcellulose) (HPC)): 85 % of control
T/C (dose: 2400.0 mg/kg/injection, schedule: Q04DX003 (sc), vehicle: Klucel (hydroxypropylcellulose) (HPC)): 63 % of control
